Assay results taken from patent US11999941B2, “Composition suitable for protecting microorganisms” (SOCIÉTÉ DES PRODUITS NESTLÉ S.A., priority 2015, dated 2024).

Tested on: Bifidobacterium longum BL999
Test: Pre-screening of single ingredients as protective agent: viability loss after spray-drying, storage and reconstitution
Format: cell-based
Conditions: for storage stability / losses during storage and reconstitution: storage at T=37° C.; for storage stability / losses during storage and reconstitution / viability loss after 8 weeks: aw=0.22, after spray-drying; for protective effect during drying: individual ingredient 18.2 wt % with maltodextrin DE12 and sodium ascorbate, compared to the reference; for viability loss after 8 weeks: 8 weeks storage at T=37° C.
Experimental: A fermentation medium suitable for the growth of Bifidobacterium longum BL999 was inoculated with 2% frozen-thawed bacteria.
The centrifuged biomass was then conditioned according to the following process. […] Then 300 g of centrifuged biomass were filled into a beaker, which was placed in an ice water bath. The total solids content of the biomass was measured and the protective agent solution was added at a ratio of protective agents to biomass of 55/45 (based on dry weight). The mixture was gently agitated in the ice water bath for one hour. The pH was then adjusted to pH7.
The conditioned concentrate was then spray-dried on a lab-scale spray-dryer (Buechi, B-290, Flawil, Switzerland). The air temperature was 140° C. and the tower temperature was adjusted by the concentrate flow to T=70° C. During drying, the beaker containing the concentrate was cooled in an ice water bath.
In a first round of trials, 38 ingredients were selected as potential protective agents. The effect of those ingredients on the stability of Bifidobacterium longum BL999 was tested by spray-drying biomass with a protective agent comprising maltodextrin DE12, sodium ascorbate and one single additional ingredient from the list of 38 compounds to be screened in the following concentrations:
This control was used as a reference to evaluate the effect of the protective agents on the stability of Bifidobacterium longum BL999 during spray-drying, storage and reconstitution.
The 38 culture powders and the control were prepared as described above, the conditioning being carried out with one of the 38 protective agents.
The cell concentration of B. longum in the powder was detected by classical plating methods. Such classical plating methods are summarized in the microbiology book: James Monroe Jay, Martin J. Loessner, David A. Golden. […] Modern food microbiology. 7th edition, Springer Science, New York, N.Y. The cells were counted in the concentrate before drying, in the culture powder directly after drying and after 2, 3, 4, 6, 8 and/or 12 weeks storage in a climatic chamber at T=37° C. above saturated potassium acetate solution (aw=0.22). The cell counts after drying and after storage were determined after reconstitution of the powder with a reconstitution medium, as known by the person skilled in the art, who is well aware of the above-mentioned plating methods.
The following formulae were used for the evaluation of the data:
where X0 is the number of micro-organisms at time t=0 and Xt the number of microorganisms at time t. When the microbiological counts were measured in k replicates, x0 is the average number of micro-organisms at time t=0 and, xt is the average number of micro-organisms at time t, the average log loss at time t is given by:
The tested individual ingredients were selected among several groups of molecules: sugars, sugar alcohols, amino acids and proteins. All tested ingredients within a group were spray-dried on the same day and the reference was spray dried again with each group, also on the same day.

[1] = individual ingredient 18.2 wt %

SMILES | storage stability / losses during storage and reconstitution [1] | protective effect during drying (spray-drying) | viability loss after 8 weeks [1] | further results
C[C@H](N)C(=O)O [alanine, L-alanine] | lowest losses during storage and reconstitution |  |  | 
N=C(N)NCCC[C@H](N)C(=O)O [arginine, L-arginine] | lowest losses during storage and reconstitution |  |  | 
N[C@@H](CS)C(=O)O [cysteine, L-cysteine] | lowest losses during storage and reconstitution |  |  | viability loss during drying (spray-drying, protective agent of maltodextrin DE12 68.2 wt %, sodium ascorbate 13.6 wt %, individual ingredient 18.2 wt %): 0.2 log
OCC(O)CO [glycerol] | majority of the bacteria of this variant died already after two weeks storage | light protective effect |  | 
OC[C@@H](O)[C@@H](O[C@@H]1O[C@H](CO)[C@H](O)[C@H](O)[C@H]1O)[C@H](O)[C@@H](O)CO [lactitol] |  |  | lowest | 
NCCCC[C@H](N)C(=O)O [lysine, L-lysine] | lowest losses during storage and reconstitution |  |  | 
OC[C@@H](O)[C@@H](O)[C@H](O)[C@H](O)CO [mannitol] |  | light protective effect | lowest | 
O[C@H]1[C@H](O)[C@@H](O)[C@H](O)[C@@H](O)[C@H]1O [myo-inositol] |  |  | lowest | 
O=C1O[C@H]([C@@H](O)CO)C([O-])=C1O.[Na+] [sodium ascorbate] |  | does not show significant effect on the bacterial survival during the drying process |  | 
OC[C@@H](O)[C@@H](O)[C@H](O)[C@@H](O)CO [sorbitol] |  | light protective effect | lowest | 
OC[C@H]1O[C@@](CO)(O[C@H]2O[C@H](CO)[C@@H](O)[C@H](O)[C@H]2O)[C@@H](O)[C@@H]1O [sucrose] | most efficient ingredient |  |  | 
OC[C@@H](O)[C@H](O)[C@@H](O)CO [xylitol] |  | light protective effect |  | 
